One molecule from patent EP1949908A1, “Combined use of derivatives of GLP-1 analogs and PPAR ligands” (NOVO NORDISK A/S, priority 2001, dated 2002) can be followed below.

The test system of the experiment is male ZDF rat. The experiment can be described thus: Four weeks treatment of overtly diabetic male ZDF rats: HbA1c and 24-hour glucose profile. It is filed as in vivo. Conditions: mean±SEM, n=10, propionic acid compound 1 mg/kg oral gavage once daily, GLP-1 derivative 50 µg/kg subcutaneously twice daily. As to the method: Ninety male ZDF rats aged 15-16 weeks were used in the study. Before treatment start, measurements of glucose and HbA1c were performed. All animals were overtly diabetic at the beginning of the study. Animals were allocated into the following 4 treatment groups:
(-)-2-Ethoxy-3-(4-(2-phenoxazin-10-yl-ethoxy)-phenyl)-propionic acid and Vehicle-1 were administered by oral gavage once daily at approx. 07:30. Arg^34, Lys^26(N^ε-(γ-Glu(N^α-hexadecanoyl)))-GLP-1 (7-37) and Vehicle-2 were administered subcutaneously twice daily at approx. 07:30 and 14:30.
After four weeks treatment, HbA1c was measured and 24-hour glucose profiles were assessed.
Delta HbA1c refers to the numerical difference between the measurement after treatment and the measurement before treatment. Glucose24hAUC refers to the total area under the glucose concentration curve during the 24-hour period. A two-way analysis of variance was performed for each parameter and the significance of the interaction term evaluated.

Regarding `CCOC(Cc1ccc(OCCN2c3ccccc3Oc3ccccc32)cc1)C(=O)O` (single isomer, unassigned; (-)) [(-)-2-ethoxy-3-(4-(2-phenoxazin-10-yl-ethoxy)-phenyl)-propionic acid], for the setting “after four weeks treatment minus before treatment”, the “Delta HbA1c” value is reported as -0.81±0.36 % points. Under “total area under the glucose concentration curve during 24-hour period after four weeks treatment”, the Glucose24hAUC was determined as 456 ± 38 mM·h.
